{"source": "patent US20210330575A1", "about": "(DONG KOOK PHARM. CO., LTD, priority 2018, published 2021)", "test_system": "nitric oxide (NO) production in LPS-treated RAW264.7 cells", "experiment": "Anti-inflammation activity: NO production by Griess reagent", "format": "cell-based, mouse", "settings": "LPS-induced RAW264.7, 48 hours, FIG. 2", "protocol": "RAW264.7 cells which have been induced to have an inflammation response by LPS in the same manner as above were added to a 96-well plate. […] Then, by using the Griess reagent, the production amount of NO was measured."}
{"smiles": "COc1ccc2c(c1)c(CC(=O)O)c(C)n2C(=O)c1ccc(Cl)cc1", "note": "[indomethacin]", "values": [{"measurement": "NO production (result in words)", "result": "decreased"}]}
